Results taken from patent US20260125370A1, “SULFOXIMINE COMPOUNDS AS HISTONE DEACETYLASE 6 INHIBITOR, AND PHARMACEUTICAL COMPOSITION COMPRISING THE SAME” (CHONG KUN DANG PHARMACEUTICAL CORP., priority 2022, published 2026).

How the values were obtained:
[1] = biological target: T1, human recombinant HDAC6 (Homo sapiens, UniProt Q9UBN7); assay: HDAC6 enzyme activity inhibition (fluorimetric, in vitro); assay type: biochemical; details: samples at 0.1, 1, 10, 100 and 1000 nM
T1 construct: purchased Calbiochem 382180
T1 sequence (Q9UBN7 1-1215): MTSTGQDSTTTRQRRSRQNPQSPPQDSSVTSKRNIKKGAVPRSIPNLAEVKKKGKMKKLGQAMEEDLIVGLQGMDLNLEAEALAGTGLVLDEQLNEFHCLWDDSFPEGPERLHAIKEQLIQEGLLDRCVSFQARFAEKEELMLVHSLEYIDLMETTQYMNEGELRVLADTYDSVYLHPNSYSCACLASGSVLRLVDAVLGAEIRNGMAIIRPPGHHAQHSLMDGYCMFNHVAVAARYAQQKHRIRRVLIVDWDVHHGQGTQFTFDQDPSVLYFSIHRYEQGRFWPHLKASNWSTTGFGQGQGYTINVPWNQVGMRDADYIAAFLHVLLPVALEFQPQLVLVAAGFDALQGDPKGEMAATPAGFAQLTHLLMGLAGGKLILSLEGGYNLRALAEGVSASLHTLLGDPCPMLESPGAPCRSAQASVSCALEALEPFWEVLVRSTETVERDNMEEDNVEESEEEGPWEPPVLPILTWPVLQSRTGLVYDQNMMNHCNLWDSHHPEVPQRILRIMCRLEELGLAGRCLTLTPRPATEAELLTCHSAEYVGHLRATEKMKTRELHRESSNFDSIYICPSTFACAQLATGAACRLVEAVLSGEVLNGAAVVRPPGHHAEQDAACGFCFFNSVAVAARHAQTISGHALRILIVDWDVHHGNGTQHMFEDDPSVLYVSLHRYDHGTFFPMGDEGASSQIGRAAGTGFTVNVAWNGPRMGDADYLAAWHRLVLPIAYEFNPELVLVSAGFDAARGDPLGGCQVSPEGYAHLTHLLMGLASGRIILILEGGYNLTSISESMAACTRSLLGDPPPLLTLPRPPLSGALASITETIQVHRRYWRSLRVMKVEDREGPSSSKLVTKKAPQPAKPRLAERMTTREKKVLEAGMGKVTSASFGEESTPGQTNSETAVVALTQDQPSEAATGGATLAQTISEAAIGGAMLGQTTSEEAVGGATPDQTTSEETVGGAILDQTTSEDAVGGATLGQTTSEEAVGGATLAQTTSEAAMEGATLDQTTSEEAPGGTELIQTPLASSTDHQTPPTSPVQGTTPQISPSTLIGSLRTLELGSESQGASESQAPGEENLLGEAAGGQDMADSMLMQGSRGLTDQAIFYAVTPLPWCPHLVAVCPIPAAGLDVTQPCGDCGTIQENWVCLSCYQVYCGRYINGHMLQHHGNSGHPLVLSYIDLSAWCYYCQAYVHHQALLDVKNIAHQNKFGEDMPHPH
Method: (§1) A HDAC enzyme inhibitory capacity of a test material was measured by using HDAC1 Fluorimetric Drug Discovery Assay Kit (Enzolifesciences: BML-AK511) and HDAC6 human recombinant (Calbiochem: 382180). For a HDAC1 assay, samples were treated at a concentration of 100, 1000 and 10000 nM. For a HDAC6 assay, samples were treated at a concentration of 0.1, 1, 10, 100 and 1000 nM.
(§2) For the test on the HDAC1 enzyme activity, human recombinant HDAC1 (BML-SE456) was used as a zymogen and Fluor de Lys®-SIRT1 (BNL-KI177) was used as a substrate. A 5-fold dilution of the compound was divided into a 96-well plate, after which 0.3 μg of the enzyme and […] of the substrate were inserted into each well and subjected to reaction at 37° C. for 60 minutes, such that Fluor de Lys® Developer II (BML-K1176) was inserted thereinto and subjected to reaction for 30 minutes and finished. After that, a fluorescence value (Ex 360, Em 460) was measured with a multi-plate reader (FlexStation 3, Molecular Device). An experiment on HDAC6 enzyme was conducted in accordance with the same protocol as in the HDAC1 enzyme activity test method by using human recombinant HDAC6 (382180) of Calbiochem Inc. For final result values, each IC50 value was calculated with GraphPad Prism 4.0 program.

[2] = biological target: T2, human recombinant HDAC1 (Homo sapiens, UniProt Q13547); assay: HDAC1 enzyme activity inhibition (HDAC1 Fluorimetric Drug Discovery Assay Kit, in vitro); assay type: biochemical; details: samples at 100, 1000 and 10000 nM
T2 construct: purchased Enzolifesciences BML-SE456
Method: as §1, §2

T2 sequence (Q13547 whole entry): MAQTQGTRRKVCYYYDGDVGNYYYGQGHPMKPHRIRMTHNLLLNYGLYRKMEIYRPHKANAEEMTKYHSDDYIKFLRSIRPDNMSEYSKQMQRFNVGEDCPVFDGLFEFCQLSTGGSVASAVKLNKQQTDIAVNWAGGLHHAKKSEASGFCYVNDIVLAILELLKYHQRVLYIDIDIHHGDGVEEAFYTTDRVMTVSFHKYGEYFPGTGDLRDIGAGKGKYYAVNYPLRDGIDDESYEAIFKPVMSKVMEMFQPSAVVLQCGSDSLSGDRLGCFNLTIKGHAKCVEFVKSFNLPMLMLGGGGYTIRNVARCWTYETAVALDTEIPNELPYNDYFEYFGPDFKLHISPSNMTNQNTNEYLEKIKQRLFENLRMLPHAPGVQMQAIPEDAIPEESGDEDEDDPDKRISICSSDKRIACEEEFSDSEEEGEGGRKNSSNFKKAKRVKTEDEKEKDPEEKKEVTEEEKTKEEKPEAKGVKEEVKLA

Compound: CN=S1(=O)CCN(C(=O)N(Cc2ccc(-c3nnc(C(F)F)o3)cc2F)c2ccccc2)CC1 [Compound 39, N-(4-(5-(difluoromethyl)-1,3,4-oxadiazol-2-yl)-2-fluorobenzyl)-1-(methylimino)-N-phenylthiomorpholin-4-carboxamide 1-oxide]
- IC50 [1]: 0.0808 µM
- IC50 [2]: > 10 µM

Compound: CC(=O)N=S1(=O)CCN(C(=O)N(Cc2ccc(-c3nnc(C(F)F)o3)cc2F)c2ccccc2)CC1 [Compound 40, 1-(acetylimino)-N-(4-(5-(difluoromethyl)-1,3,4-oxadiazol-2-yl)-2-fluorobenzyl)-N-phenylthiomorpholin-4-carboxamide 1-oxide]
- IC50 [1]: 0.0848 µM
- IC50 [2]: > 10 µM

Compound: N=S1(=O)CCN(C(=O)N(Cc2ccc(-c3nnc(C(F)F)o3)cc2F)c2cccc(Br)c2)CC1 [Compound 41, N-(3-bromophenyl)-N-(4-(5-(difluoromethyl)-1,3,4-oxadiazol-2-yl)-2-fluorobenzyl)-1-iminothiomorpholin-4-carboxamide 1-oxide]
- IC50 [1]: 0.0289 µM
- IC50 [2]: > 10 µM

Compound: N=S1(=O)CCN(C(=O)N(Cc2ccc(-c3nnc(C(F)F)o3)cc2F)c2ccc(Cl)c(Cl)c2)CC1 [Compound 42, N-(3,4-dichlorophenyl)-N-(4-(5-(difluoromethyl)-1,3,4-oxadiazol-2-yl)-2-fluorobenzyl)-1-iminothiomorpholin-4-carboxamide 1-oxide]
- IC50 [1]: 0.0377 µM
- IC50 [2]: > 10 µM

Compound: N=S1(=O)CCN(C(=O)N(Cc2ccc(-c3nnc(C(F)F)o3)cc2F)c2cccc(-c3cncs3)c2)CC1 [Compound 43, N-(4-(5-(difluoromethyl)-1,3,4-oxadiazol-2-yl)-2-fluorobenzyl)-1-imino-N-(3-(thiazole-5-yl)phenyl)thiomorpholin-4-carboxamide 1-oxide]
- IC50 [1]: 0.0889 µM
- IC50 [2]: > 10 µM

Compound: N=S1(=O)CCN(C(=O)N(Cc2ccc(-c3nnc(C(F)F)o3)cc2F)c2cccc(-c3ccco3)c2)CC1 [Compound 44, N-(4-(5-(difluoromethyl)-1,3,4-oxadiazol-2-yl)-2-fluorobenzyl)-N-(3-(furan-2-yl)phenyl)-1-iminothiomorpholin-4-carboxamide 1-oxide]
- IC50 [1]: 0.13 µM
- IC50 [2]: > 10 µM

Compound: N=S1(=O)CCN(C(=O)N(Cc2ccc(-c3nnc(C(F)F)o3)cn2)c2cc(F)ccc2F)CC1 [Compound 45, N-((5-(5-(difluoromethyl)-1,3,4-oxadiazol-2-yl)pyridin-2-yl)methyl)-N-(2,5-difluorophenyl)-1-iminothiomorpholin-4-carboxamide 1-oxide]
- IC50 [1]: 0.0636 µM
- IC50 [2]: > 10 µM

Compound: N=S1(=O)CCN(C(=O)N(Cc2ncc(-c3nnc(C(F)F)o3)cc2F)c2cc(F)ccc2F)CC1 [Compound 46, N-((5-(5-(difluoromethyl)-1,3,4-oxadiazol-2-yl)-3-fluoropyridin-2-yl)methyl)-N-(2,5-difluorophenyl)-1-iminothiomorpholin-4-carboxamide 1-oxide]
- IC50 [1]: 0.0659 µM
- IC50 [2]: > 10 µM

Compound: N=S1(=O)CCN(C(=O)N(Cc2ccc(-c3nnc(C(F)F)o3)cc2F)c2cccc(-c3cccnc3)c2)CC1 [Compound 47, N-(4-(5-(difluoromethyl)-1,3,4-oxadiazol-2-yl)-2-fluorobenzyl)-1-imino-N-(3-(pyridin-3-yl)phenyl)thiomorpholin-4-carboxamide 1-oxide]
- IC50 [1]: 0.185 µM
- IC50 [2]: > 10 µM

Compound: N=S1(=O)CCC(N2C[C@@H]3C[C@H]2CN3C(=O)N(Cc2ccc(-c3nnc(C(F)F)o3)cn2)c2ccccc2F)CC1 (stereo partly drawn) [Compound 48, (1S,4S)—N-((5-(5-(difluoromethyl)-1,3,4-oxadiazol-2-yl)pyridin-2-yl)methyl)-N-(2-fluorophenyl)-5-(1-imino-1-oxidotetrahydro-2H-thiopyran-4-yl)-2,5-diazabicyclo[2.2.1]heptan-2-carboxamide]
- IC50 [1]: 0.113 µM
- IC50 [2]: > 10 µM

Compound: N=S1(=O)CCN(C(=O)N(Cc2ccc(-c3nnc(C(F)F)o3)cn2)c2ccc(Cl)cc2Cl)CC1 [Compound 49, N-(2,4-dichlorophenyl)-N-((5-(5-(difluoromethyl)-1,3,4-oxadiazol-2-yl)pyridin-2-yl)methyl)-1-iminothiomorpholin-4-carboxamide 1-oxide]
- IC50 [1]: 0.0777 µM
- IC50 [2]: > 10 µM

Compound: N=S1(=O)CCN(C(=O)N(Cc2ncc(-c3nnc(C(F)F)o3)cc2F)c2ccc(Cl)cc2Cl)CC1 [Compound 50, N-(2,4-dichlorophenyl)-N-((5-(5-(difluoromethyl)-1,3,4-oxadiazol-2-y1)-3-fluoropyridin-2-yl)methyl)-1-iminothiomorpholin-4-carboxamide 1-oxide]
- IC50 [1]: 0.0664 µM
- IC50 [2]: > 10 µM

Compound: N=S1(=O)CCN(C(=O)N(Cc2ccc(-c3nnc(C(F)F)o3)cc2F)c2ccc(Cl)cc2Cl)CC1 [Compound 51, N-(2,4-dichlorophenyl)-N-(4-(5-(difluoromethyl)-1,3,4-oxadiazol-2-y1)-2-fluorobenzyl)-1-iminothiomorpholin-4-carboxamide 1-oxide]
- IC50 [1]: 0.0699 µM
- IC50 [2]: > 10 µM

Compound: CC(=O)N=S1(=O)CCN(C(=O)N(Cc2ccc(-c3nnc(C(F)F)o3)cn2)c2ccccc2)CC1 [Compound 52, 1-(acetylimino)-N-((5-(5-(difluoromethyl)-1,3,4-oxadiazol-2-yl)pyridin-2-yl)methyl)-N-phenylthiomorpholin-4-carboxamide 1-oxide]
- IC50 [1]: 0.0469 µM
- IC50 [2]: > 10 µM

Compound: CS(=O)(=O)N=S1(=O)CCN(C(=O)N(Cc2ccc(-c3nnc(C(F)F)o3)cn2)c2ccccc2)CC1 [Compound 53, N-((5-(5-(difluoromethyl)-1,3,4-oxadiazol-2-yl)pyridin-2-yl)methyl)-1-((methylsulfonyl)imino)-N-phenylthiomorpholin-4-carboxamide 1-oxide]
- IC50 [1]: 0.0406 µM
- IC50 [2]: > 10 µM

Compound: N=S1(=O)CCN(C(=O)N(Cc2c(F)cc(-c3nnc(C(F)F)o3)cc2F)c2ccccc2F)CC1 [Compound 54, N-(4-(5-(difluoromethyl)-1,3,4-oxadiazol-2-y1)-2,6-difluorobenzyl)-N-(2-fluorophenyl)-1-iminothiomorpholin-4-carboxamide 1-oxide]
- IC50 [1]: 0.2 µM
- IC50 [2]: > 10 µM

Compound: N=S1(=O)CCN(C(=O)N(Cc2ncc(-c3nnc(C(F)F)o3)cc2F)c2ccccc2F)CC1 [Compound 55]
- IC50 [1]: 0.14 µM
- IC50 [2]: > 10 µM

Compound: N=S1(=O)CCN(C(=O)N(Cc2ccc(-c3nnc(C(F)F)o3)cc2F)c2ccccc2F)CC1 [Compound 56, N-(4-(5-(difluoromethyl)-1,3,4-oxadiazol-2-yl)-2-fluorobenzyl)-N-(2-fluorophenyl)-1-iminothiomorpholin-4-carboxamide 1-oxide]
- IC50 [1]: 0.0726 µM
- IC50 [2]: > 10 µM

Compound: N=S1(=O)CCN(C(=O)N(Cc2ccc(-c3nnc(C(F)F)o3)cn2)c2ccccc2F)CC1 [Compound 57]
- IC50 [1]: 0.13 µM
- IC50 [2]: > 10 µM

Compound: O=C(NC1CCS(=O)(=NC(=O)C(F)(F)F)CC1)N(Cc1ccc(-c2nnc(C(F)F)o2)cc1F)c1ccccc1 (stereo not shown) [Compound 58, N-(4-(3-(4-(5-(difluoromethyl)-1,3,4-oxadiazol-2-yl)-2-fluorobenzyl)-3-phenylureido)-1-oxidotetrahydro-2H-thiopyran-1-yliden)-2,2,2-trifluoroacetamide]
- IC50 [1]: 0.256 µM
- IC50 [2]: > 10 µM
